Data on 6 molecules can be found in US20110281852A1 (priority 2010, published 2011).

Series [1] deals with 3T3-L1 cells. Description: Oil-Red-O staining and quantification, berberine with amentoflavone in 3T3-L1 (Example 6). The class given is cell-based, mouse. The conditions noted are these: Mus musculus. As for the experimental part:
(§1) Oil-Red-O staining and quantification: Oil-Red-O Staining and its quantification were performed as previously reported. Briefly, medium was removed and cells were washed with PBS twice, fixed with 3.7% formalin at room temperature for 30 min, then rinsed with pure water, added 60% isopropanol and incubated for 5 minutes, then moved out isopropanol and stained cells with diluted Oil-Red-O solution (Oil-Red-O store solution (3 mg/ml in pure isopropanol): water=3:2) at room temperature for 10 min. Then the diluted Oil-Red-O solution was removed and cells were washed 3 times with pure water. After staining, the cells were washed twice with 70% ethanol to remove excess stain. Stained oil droplets in the cells were dissolved in isopropanol containing 4% Nonidet-P40 (Fisher Scientific, Pittsburgh, Pa., USA) shaking in 37° C. at speed 100 rpm for 1 hour, and OD values were measured at an absorbance of 490 nm and then normalized with control group.

Series [2] in a line: MTT assay, 3T3-L1 viability during differentiation with clozapine, risperidone, berberine (Example 2). It counts as cell-based, mouse. The conditions noted are these: mouse, 3T3-L1 cells during differentiation induction; read-out: reduction of cell viability. The protocol: (§2) Cell culture and drug treatment: 3T3-L1 cells (American Type Culture Collection, Manassas, Va., USA) were cultured at 37° C. in a humidified 5% CO2 atmosphere and grown in a DMEM (Sigma-Aldrich, St. Louis, Mo. USA) supplemented with 10% Fetal Bovine Serum (FBS, Atlanta Biologicals Corp., Lawrenceville, Ga., USA), 100 units/ml penicillin and 100 μg/ml streptomycin. Differentiation was induced by addition of 167 nM insulin, 520 μM isobutylmethylxanthine (IBMX), and 1 μM dexamethasone for 2 days and then only with 167 nM insulin for 6 days. Detailed protocol was described as our previous report (Hu et al., Phytomedicine (2009) 16(9):864-873).
(§3) Medium was removed after differentiation and treatment for 8 days, MTT (Methylthiazolyldiphenyl—tetrazolium bromide 0.5 mg/ml, 50 μl/well) was added.

Series [3] relates to 3T3-L1 cells. Description: Oil-Red-O staining and quantification, clozapine/risperidone induced adipogenesis in 3T3-L1 (Example 2). The settings on record: 8 days. The class given is cell-based, mouse. The protocol:
Detailed protocol was described as our previous report (Hu et al., Phytomedicine (2009) 16(9):864-873).
as §1, with “reported (Liu et al., Sinica (2004) 25:1052-1057).” for “reported.”, “water. Images were obtained using an Olympus IX70 inverted microscope equipped for phase-contrast microscopy (Olympus, Tokyo, Japan).” for “water.”

In another series the test system is SREBP-1. In words: Real-time RT-PCR, SREBP-1 mRNA in 3T3-L1. It counts as cell-based, mouse. The conditions noted are these: 8 days. The source says: (§4) Realtime RT-PCR: Real-time reverse transcriptase polymerase chain reaction (RT-PCR) analysis was used to measure mRNA expression of genes SREBP-1, PPARγ, C/EBPα, low density lipoprotein receptor (LDLR), Adiponectin, and fatty acid synthase (FAS) under the control of β-actin. Briefly, total RNA was isolated from 3T3-L1 cells following treatment for 8 days with Trizol reagent (Invitrogen, Carlsbad, Calif., USA) according to the manufacturer's instruction. RNA was quantified using absorption of light at 260 nm, and sample purity was checked by OD 260 nm/280 nm. 0.8 μg of total RNA from each sample was used for reverse transcription reaction using the TaqMan Reverse Transcription Reagents (Applied Biosystems, Foster City, Calif., USA) according to the manufacturers' instructions. PCR was done using the SYBR green Master Mix (Applied Biosystems, Foster City, Calif., USA) according to the manufacturers' instructions. The temperature cycling conditions of amplification were as follows: an initial step of denaturation at 95° C. for 10 min, 40 cycles of denaturation at 95° C. for 30 s, annealing at 55° C. for 30 s, and elongation at 72° C. for 30 s. Realtime RT-PCR was performed using Mx3000P Realtime Thermocyclers (Statagene, La Jolla, Calif., USA). The relative mRNA levels of these genes were calculated by 2-delta delta CT method and normalized with control groups.

The next series relates to PPARγ. In words: Real-time RT-PCR, PPARγ mRNA in 3T3-L1. It counts as cell-based, mouse. The settings on record: 15 μM clozapine, 8 days.
Excerpt: as §4
In general terms: In qPCR the cycle at which signal appears reflects the starting amount.

The next series relates to C/EBPα. In words: Real-time RT-PCR, C/EBPα mRNA in 3T3-L1. The class given is cell-based, mouse. The settings on record: 8 days.
Excerpt: as §4

Series [4] concerns low density lipoprotein receptor (LDLR). In words: Real-time RT-PCR, LDLR mRNA in 3T3-L1. The settings on record: 8 days. It counts as cell-based, mouse.
Excerpt: as §4

The next series relates to Adiponectin. Description: Real-time RT-PCR, Adiponectin mRNA in 3T3-L1. It counts as cell-based, mouse. The settings on record: 8 days.
Excerpt: as §4

The conditions of series [5]: in vivo; cited from earlier work.
For series [6], the system named is 3T3-L1 cells. Description: MTT assay, 3T3-L1 viability during differentiation with clozapine, risperidone, berberine (Example 2). It counts as cell-based, mouse. The settings on record: day 8 of differentiation. As for the experimental part: as §2, §3
Series [7] deals with fatty acid synthase (FAS). Description: Real-time RT-PCR, FAS mRNA in 3T3-L1. The class given is cell-based, mouse. The conditions noted are these: 50 μM risperidone, 8 days.
Excerpt: as §4

The conditions of series [8]: over 10 weeks of treatment; cited from earlier work.

Like-named read-outs stand apart in the source and are kept apart here.

In the case of `O=c1cc(-c2ccc(O)c(-c3c(O)cc(O)c4c(=O)cc(-c5ccc(O)cc5)oc34)c2)oc2cc(O)cc(O)c12` [amentoflavone, reference compound], the inhibition at 25 µM in the series with 3T3-L1 cells [1] (3T3-L1, read-out: enhancement of the inhibitory effects of berberine, 25 μM amentoflavone added to 4 μM berberine, with 15 μM clozapine) came to 10.1%; in the series with 3T3-L1 cells [1] (3T3-L1, read-out: enhancement of the inhibitory effects of berberine, 25 μM amentoflavone added to 8 μM berberine, with 15 μM clozapine) it was 7.8%.

Take `CN1CCN(C2=Nc3cc(Cl)ccc3Nc3ccccc32)CC1` [clozapine, reference compound]: in [2], the cytotoxicity at 8 days, 15 μM worked out at 6.2% and the cytotoxicity at 8 days, 30 μM amounted to 12.5%. Moreover, the “induced adipogenesis vs vehicle treated group” value in the series with 3T3-L1 cells [3] (15 μM clozapine) is reported as 37.4%. Further, the “induced adipogenesis vs vehicle treated group” value in the series with 3T3-L1 cells [3] (30 μM clozapine) is reported as 25.2%. Besides, the “increase of SREBP-1 mRNA expression vs control group” value in the series with SREBP-1 (15 μM clozapine) is recorded as 27.6%. In addition, in the series on PPARγ, the “increase of PPARγ mRNA expression vs control group” value came out at 68.3%. Moreover, the “increase of C/EBPα mRNA expression vs control group” value in the series on C/EBPα (15 μM clozapine) was determined as 45.7%. For the same molecule, the “increase of LDLR mRNA expression vs control group” value in [4] (15 μM clozapine) is 63.1%. The “increase of adiponectin mRNA expression vs control group” value in the series with Adiponectin (15 μM clozapine) is recorded as 45.5%.

On to `CN(C)C(=N)N=C(N)N` [metformin], for which the “effect in antipsychotic-induced weight gain” value (“effect” below) in [5] is “no statistically significant effect”.

`CCCCCCCCCCC[C@@H](C[C@@H]1OC(=O)[C@H]1CCCCCC)OC(=O)[C@H](CC(C)C)NC=O` [orlistat]: the “effect” value in [5] is “no statistically significant effect”.

As to `Cc1nc2n(c(=O)c1CCN1CCC(c3noc4cc(F)ccc34)CC1)CCCC2` [risperidone, reference compound], the “enhancement of cell viability” value in the series with 3T3-L1 cells [6] (printed 'for 15 μM clozapine treatment') was found to be 14%; with 3T3-L1 cells [6] (printed 'for 30 μM clozapine treatment') it was 16.8%. Also, the “induced adipogenesis vs vehicle treated group” value with 3T3-L1 cells [3] (25 μM risperidone) was determined as 14.1%; in the series on 3T3-L1 cells [3] (50 μM risperidone) it was 26.5%. Moreover, in the series on SREBP-1 (50 μM risperidone), the “increase of SREBP-1 mRNA expression vs control group” value is given as 133.5%. For the same molecule, in the series on C/EBPα (50 μM risperidone), the “increase of C/EBPα mRNA expression vs control group” value stood at 48.8%. In addition, the “increase of LDLR mRNA expression vs control group” value in series [4] (50 μM risperidone) was found to be 61.5%. Moreover, in the series on Adiponectin (50 μM risperidone), the “increase of adiponectin mRNA expression vs control group” value is recorded as 63.8%. Besides, the “increase of FAS mRNA expression vs control group” value in series [7] came out at 34.4%. In addition, in series [8], the weight gain was roughly 2 kg.

With `CC(C)CC(N(C)C)C1(c2ccc(Cl)cc2)CCC1` (stereo not drawn) [sibutramine], the “effect” value in [5] is “no statistically significant effect”.
